Calls of active or inactive are those of the source.

The results in this text go back to ChEMBL document CHEMBL1201862, “PubChem BioAssay data set” (2004).

The target of test [1] is 5-hydroxytryptamine receptor 2A (Mus musculus, UniProt P35363). In kind it is functional, cell-based.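 Also: CHO-K1 cells with tagged receptor and beta-arrestin; agonist potency measured as compound-induced activation of the receptor.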
The target in the next test is Mu-type opioid receptor (Homo sapiens, UniProt P35372). In kind it is functional, cell-based.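 Also: U2OS cells with beta-arrestin recruitment to OPRM1 by beta-gal complementation.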
For test [2], the target named is DNA (cytosine-5)-methyltransferase 1 (Homo sapiens, UniProt P26358). Nature of the test: DNMT1 methyltransferase inhibitors, confirmation, biochemical, fluorescent molecular beacon (AID 602386). In kind it is functional.
Test [3] concerns the target T1, Voltage-gated N-type calcium channel alpha-1B subunit/Amyloid beta A4 precursor protein-binding family A member 1 (Homo sapiens, UniProt Q00975+Q02410). In kind it is protein assay.
The target in the next test is T2, ORF 73 (Human herpesvirus 8, UniProt O40947).
T2 sequence (O40947 whole entry): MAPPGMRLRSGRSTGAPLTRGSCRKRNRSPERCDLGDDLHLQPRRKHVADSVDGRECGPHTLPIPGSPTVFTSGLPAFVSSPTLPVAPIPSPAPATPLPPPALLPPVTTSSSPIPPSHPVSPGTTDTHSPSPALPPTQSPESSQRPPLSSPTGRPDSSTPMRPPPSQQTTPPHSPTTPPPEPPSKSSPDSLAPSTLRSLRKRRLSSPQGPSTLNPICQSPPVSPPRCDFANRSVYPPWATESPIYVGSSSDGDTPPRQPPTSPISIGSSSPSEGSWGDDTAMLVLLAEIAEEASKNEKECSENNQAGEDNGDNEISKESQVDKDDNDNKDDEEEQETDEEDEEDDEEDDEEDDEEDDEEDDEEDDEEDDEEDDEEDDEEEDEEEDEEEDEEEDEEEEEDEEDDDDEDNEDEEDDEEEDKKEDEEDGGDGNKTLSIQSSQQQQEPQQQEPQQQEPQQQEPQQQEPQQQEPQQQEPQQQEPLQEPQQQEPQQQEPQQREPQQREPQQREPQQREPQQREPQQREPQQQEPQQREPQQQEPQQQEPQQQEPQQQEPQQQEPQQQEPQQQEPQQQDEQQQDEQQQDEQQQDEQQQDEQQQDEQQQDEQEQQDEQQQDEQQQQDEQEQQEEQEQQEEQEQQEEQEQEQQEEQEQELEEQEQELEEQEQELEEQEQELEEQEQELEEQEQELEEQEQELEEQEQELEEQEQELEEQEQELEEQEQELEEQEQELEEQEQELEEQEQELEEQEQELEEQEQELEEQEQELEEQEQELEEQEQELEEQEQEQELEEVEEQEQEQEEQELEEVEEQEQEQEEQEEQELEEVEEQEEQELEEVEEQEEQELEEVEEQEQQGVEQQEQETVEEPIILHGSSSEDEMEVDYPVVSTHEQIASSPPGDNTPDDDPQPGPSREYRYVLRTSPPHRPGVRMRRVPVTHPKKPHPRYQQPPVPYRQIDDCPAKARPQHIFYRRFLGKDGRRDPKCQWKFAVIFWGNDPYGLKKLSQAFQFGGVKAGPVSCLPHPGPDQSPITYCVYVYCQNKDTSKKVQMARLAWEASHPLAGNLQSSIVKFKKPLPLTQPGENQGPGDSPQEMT
In words: inhibitors of C-LANA binding to LBS DNA, dose response, biochemical, fluorescence polarization, cherry-picked samples (AID 504725).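 Also: fluorescence polarization of a labeled DNA duplex reporting LANA DNA binding; potency is for inhibitors that block LANA binding to the DNA.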 On the set-up: species or system Human gammaherpesvirus 8. (Polarisation of emitted light reports the rotation of a fluorescent probe.)

In test [4] the target is T1, Voltage-gated N-type calcium channel alpha-1B subunit/Amyloid beta A4 precursor protein-binding family A member 1. In kind it is protein assay. The source holds these as a separate data set.
Test [5] has as its target T3, Carboxy-terminal domain RNA polymerase II polypeptide A small phosphatase 1 (Homo sapiens, UniProt Q9GZU7).
T3 sequence (Q9GZU7 whole entry): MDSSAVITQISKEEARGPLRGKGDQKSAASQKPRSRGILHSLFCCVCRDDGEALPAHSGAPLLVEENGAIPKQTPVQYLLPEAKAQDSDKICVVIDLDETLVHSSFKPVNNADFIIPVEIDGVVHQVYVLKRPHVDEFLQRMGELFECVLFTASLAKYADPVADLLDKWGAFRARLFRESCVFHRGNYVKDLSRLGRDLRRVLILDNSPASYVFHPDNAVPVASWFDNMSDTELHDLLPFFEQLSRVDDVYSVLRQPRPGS
Nature of the test: inhibitors of CTDSP1, concentration-response testing, biochemical assay, absorbance-based, actives from ultra-high-throughput screening (AID 540297). In kind it is functional.

Test [6] can be described thus: control 3'UTR Renilla luciferase suppression, dose response, counter-screen for Shn3 inhibitor project, cell-based, Clone20-Shn3RL, cherry-picked (AID 624133). In kind it is functional. A general note: Counterscreens check selectivity or assay interference.
Test [7] has as its target T4, Tyrosine-protein phosphatase non-receptor type 22 (Homo sapiens, UniProt Q9Y2R2).
T4 sequence (Q9Y2R2 whole entry): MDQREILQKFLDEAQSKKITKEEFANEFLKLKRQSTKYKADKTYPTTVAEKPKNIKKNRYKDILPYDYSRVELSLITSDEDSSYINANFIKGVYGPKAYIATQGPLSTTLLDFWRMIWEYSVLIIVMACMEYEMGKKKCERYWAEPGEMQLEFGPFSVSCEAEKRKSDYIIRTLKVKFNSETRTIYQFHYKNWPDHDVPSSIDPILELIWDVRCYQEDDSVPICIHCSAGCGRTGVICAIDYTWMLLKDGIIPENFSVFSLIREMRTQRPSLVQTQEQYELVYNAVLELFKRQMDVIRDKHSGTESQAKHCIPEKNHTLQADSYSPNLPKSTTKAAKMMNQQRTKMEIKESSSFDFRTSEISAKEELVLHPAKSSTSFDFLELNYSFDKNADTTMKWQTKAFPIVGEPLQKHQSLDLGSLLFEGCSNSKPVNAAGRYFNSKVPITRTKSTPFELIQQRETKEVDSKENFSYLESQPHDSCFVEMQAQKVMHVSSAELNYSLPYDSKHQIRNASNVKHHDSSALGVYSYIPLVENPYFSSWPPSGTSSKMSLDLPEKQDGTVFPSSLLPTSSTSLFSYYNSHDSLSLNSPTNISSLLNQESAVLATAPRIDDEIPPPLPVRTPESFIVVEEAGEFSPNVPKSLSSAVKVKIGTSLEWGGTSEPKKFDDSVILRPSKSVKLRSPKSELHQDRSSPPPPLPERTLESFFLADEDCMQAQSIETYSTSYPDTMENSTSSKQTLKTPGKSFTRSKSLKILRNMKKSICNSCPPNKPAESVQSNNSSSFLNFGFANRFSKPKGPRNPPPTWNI
Nature of the test: LYP phosphatase inhibition for selectivity, dose response, selectivity assay for LMPTP inhibitor project, biochemical, fluorescence, LYP catalytic domain (AID 652006). In kind it is functional. Particulars: read-out: IC50_Mean.

A short description of test [8]: HepG2 cell cytotoxicity, dose response, cytotoxicity control for Shn3 inhibitor project, CellTiter-Glo, cherry-picked (AID 624134). In kind it is functional, cell-based.
The nature of test [9]: Shn3 3'UTR reporter inhibitors, dose response, cell-based, Clone20 osteoblasts, firefly luciferase, cherry-picked (AID 624132).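 Also: firefly luciferase luminescence from reporter carrying the Shn3 3'UTR in osteoblasts.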 In kind it is functional.
Test [10] deals with T5, Low molecular weight phosphotyrosine protein phosphatase (Homo sapiens, UniProt P24666).
T5 sequence (P24666 whole entry): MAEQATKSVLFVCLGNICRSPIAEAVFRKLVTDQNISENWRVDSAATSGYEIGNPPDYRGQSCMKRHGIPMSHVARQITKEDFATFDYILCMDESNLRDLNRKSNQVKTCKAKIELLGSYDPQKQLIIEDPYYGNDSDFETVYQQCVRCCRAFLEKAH
In kind it is functional. Particulars: read-out: IC50_Mean.

Test [11] addresses T5, Low molecular weight phosphotyrosine protein phosphatase. In kind it is functional. The conditions noted are these: read-out: IC50_Mean. This is another data set of the same source.
Test [12] concerns the target T6, Corticotropin-releasing factor receptor 2/Corticotropin-releasing factor-binding protein (Homo sapiens, UniProt P24387+Q13324).
T6 sequence (Q13324 whole entry): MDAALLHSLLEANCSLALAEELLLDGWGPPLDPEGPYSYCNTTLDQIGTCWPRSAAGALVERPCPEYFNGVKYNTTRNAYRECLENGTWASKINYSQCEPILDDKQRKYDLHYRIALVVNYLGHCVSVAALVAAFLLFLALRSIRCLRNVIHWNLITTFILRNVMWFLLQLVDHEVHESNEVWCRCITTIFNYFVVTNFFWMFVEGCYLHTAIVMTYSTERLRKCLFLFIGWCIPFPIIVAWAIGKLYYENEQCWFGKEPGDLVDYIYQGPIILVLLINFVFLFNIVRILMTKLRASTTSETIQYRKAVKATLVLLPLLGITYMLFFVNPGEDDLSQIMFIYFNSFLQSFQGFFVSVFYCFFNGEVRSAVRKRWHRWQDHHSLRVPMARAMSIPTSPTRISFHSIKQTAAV
T6 sequence (P24387 whole entry): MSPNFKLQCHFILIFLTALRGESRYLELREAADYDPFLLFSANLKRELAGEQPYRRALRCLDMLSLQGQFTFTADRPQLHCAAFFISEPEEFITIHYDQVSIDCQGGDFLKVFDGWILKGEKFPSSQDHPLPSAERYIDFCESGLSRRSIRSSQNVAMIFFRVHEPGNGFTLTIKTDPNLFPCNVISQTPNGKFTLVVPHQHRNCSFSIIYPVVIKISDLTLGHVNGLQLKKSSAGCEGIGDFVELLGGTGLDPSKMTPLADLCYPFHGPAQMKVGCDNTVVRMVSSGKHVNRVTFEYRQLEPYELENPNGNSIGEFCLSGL
Nature of the test: Dose Response confirmation of uHTS hits for small molecule antagonists of the CRF-binding protein and CRF-R2 receptor complex. In kind it is functional. Particulars: read-out: IC50_Mean.

Test [13] deals with T6, Corticotropin-releasing factor receptor 2/Corticotropin-releasing factor-binding protein. Nature of the test: activators of CRF receptor 2 with binding protein – uHTS hits, confirmation (AID 602473). The conditions noted are these: read-out: EC50_Mean. In kind it is functional.
Test [14] in a line: CRF-BP/CRF-R2 complex antagonists, dose response, cell-based, uHTS hits, 384-well (AID 651639). In kind it is functional, Homo sapiens. The conditions noted are these: read-out: IC50_Mean.
The target of the next test is Melanocortin receptor 4 (Homo sapiens, UniProt P32245). In kind it is functional, cell-based.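 Also: Cell-based assay with luminescence read-out, confirmatory dose-response testing for agonist activity of biased ligands at MC4R; human U2OS cells with tagged receptor and beta-arrestin; potency of agonists that increase receptor coupling to beta-arrestin.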
Sequence of Melanocortin receptor 4 (P32245 whole entry): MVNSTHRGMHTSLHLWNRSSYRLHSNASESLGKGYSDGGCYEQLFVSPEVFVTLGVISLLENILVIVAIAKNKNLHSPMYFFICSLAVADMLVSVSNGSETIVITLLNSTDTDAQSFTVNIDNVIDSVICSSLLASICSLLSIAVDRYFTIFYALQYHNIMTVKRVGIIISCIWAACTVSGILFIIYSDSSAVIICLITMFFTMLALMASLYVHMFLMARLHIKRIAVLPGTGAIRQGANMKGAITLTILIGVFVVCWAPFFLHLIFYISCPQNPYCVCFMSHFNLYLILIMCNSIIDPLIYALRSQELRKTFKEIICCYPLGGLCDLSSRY
For test [15], the target named is T7, ATP-dependent translocase ABCB1 (Homo sapiens, UniProt P08183). In words: ABCG2 efflux pump inhibitor potency, dose response, Ig-MXP3 cells, JC-1, flow cytometry, set 2 (AID 504566).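 Also: flow cytometry median green fluorescence of retained JC-1 dye; potency of efflux pump inhibition measured as rising substrate retention.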 In kind it is functional. Particulars: read-out: EC50_MICROM_. (In flow cytometry, cells or beads pass a laser one at a time.)
T7 sequence (P08183 whole entry): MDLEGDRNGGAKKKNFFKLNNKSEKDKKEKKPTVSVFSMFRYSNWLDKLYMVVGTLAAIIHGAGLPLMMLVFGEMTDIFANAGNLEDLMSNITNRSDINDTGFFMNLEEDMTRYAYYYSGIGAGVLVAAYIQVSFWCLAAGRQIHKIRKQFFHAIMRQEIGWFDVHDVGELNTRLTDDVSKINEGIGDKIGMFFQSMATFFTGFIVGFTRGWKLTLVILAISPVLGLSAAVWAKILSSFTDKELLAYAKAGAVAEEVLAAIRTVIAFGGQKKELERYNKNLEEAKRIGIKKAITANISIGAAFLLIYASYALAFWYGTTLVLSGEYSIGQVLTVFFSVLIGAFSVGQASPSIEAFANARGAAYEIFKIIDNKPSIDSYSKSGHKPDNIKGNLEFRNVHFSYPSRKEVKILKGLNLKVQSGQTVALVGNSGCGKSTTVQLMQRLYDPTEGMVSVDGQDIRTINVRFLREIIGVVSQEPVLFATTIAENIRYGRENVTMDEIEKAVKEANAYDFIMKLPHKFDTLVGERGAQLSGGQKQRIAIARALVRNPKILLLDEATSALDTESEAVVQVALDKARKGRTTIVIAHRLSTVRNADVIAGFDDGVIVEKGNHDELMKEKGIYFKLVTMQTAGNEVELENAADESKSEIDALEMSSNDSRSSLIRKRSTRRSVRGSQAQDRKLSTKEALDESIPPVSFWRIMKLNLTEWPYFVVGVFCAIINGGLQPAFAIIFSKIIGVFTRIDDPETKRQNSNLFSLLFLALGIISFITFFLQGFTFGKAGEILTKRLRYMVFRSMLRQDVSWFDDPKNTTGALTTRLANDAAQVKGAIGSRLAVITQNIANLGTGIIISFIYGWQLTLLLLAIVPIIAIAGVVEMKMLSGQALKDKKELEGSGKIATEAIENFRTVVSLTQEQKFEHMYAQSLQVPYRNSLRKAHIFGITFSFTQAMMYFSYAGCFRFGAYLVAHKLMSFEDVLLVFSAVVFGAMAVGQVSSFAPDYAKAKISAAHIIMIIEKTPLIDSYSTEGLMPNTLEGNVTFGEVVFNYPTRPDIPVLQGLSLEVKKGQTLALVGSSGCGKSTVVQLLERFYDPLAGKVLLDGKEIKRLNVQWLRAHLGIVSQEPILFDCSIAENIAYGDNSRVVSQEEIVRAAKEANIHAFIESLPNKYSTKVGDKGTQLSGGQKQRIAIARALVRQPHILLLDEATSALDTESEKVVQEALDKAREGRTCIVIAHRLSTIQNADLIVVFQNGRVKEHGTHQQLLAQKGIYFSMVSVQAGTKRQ
In test [16] the target is T7, ATP-dependent translocase ABCB1. Nature of the test: ABCB1 efflux inhibitor potency, dose response, Jurkat-DNR cells, JC-1, flow cytometry, set 2 (AID 504569).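 Also: potency of pump inhibitors that raise cellular JC-1 green fluorescence up to the nicardipine level.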 In kind it is functional. The conditions noted are these: read-out: EC50_MICROM_.

T1 sequence (Q00975 whole entry): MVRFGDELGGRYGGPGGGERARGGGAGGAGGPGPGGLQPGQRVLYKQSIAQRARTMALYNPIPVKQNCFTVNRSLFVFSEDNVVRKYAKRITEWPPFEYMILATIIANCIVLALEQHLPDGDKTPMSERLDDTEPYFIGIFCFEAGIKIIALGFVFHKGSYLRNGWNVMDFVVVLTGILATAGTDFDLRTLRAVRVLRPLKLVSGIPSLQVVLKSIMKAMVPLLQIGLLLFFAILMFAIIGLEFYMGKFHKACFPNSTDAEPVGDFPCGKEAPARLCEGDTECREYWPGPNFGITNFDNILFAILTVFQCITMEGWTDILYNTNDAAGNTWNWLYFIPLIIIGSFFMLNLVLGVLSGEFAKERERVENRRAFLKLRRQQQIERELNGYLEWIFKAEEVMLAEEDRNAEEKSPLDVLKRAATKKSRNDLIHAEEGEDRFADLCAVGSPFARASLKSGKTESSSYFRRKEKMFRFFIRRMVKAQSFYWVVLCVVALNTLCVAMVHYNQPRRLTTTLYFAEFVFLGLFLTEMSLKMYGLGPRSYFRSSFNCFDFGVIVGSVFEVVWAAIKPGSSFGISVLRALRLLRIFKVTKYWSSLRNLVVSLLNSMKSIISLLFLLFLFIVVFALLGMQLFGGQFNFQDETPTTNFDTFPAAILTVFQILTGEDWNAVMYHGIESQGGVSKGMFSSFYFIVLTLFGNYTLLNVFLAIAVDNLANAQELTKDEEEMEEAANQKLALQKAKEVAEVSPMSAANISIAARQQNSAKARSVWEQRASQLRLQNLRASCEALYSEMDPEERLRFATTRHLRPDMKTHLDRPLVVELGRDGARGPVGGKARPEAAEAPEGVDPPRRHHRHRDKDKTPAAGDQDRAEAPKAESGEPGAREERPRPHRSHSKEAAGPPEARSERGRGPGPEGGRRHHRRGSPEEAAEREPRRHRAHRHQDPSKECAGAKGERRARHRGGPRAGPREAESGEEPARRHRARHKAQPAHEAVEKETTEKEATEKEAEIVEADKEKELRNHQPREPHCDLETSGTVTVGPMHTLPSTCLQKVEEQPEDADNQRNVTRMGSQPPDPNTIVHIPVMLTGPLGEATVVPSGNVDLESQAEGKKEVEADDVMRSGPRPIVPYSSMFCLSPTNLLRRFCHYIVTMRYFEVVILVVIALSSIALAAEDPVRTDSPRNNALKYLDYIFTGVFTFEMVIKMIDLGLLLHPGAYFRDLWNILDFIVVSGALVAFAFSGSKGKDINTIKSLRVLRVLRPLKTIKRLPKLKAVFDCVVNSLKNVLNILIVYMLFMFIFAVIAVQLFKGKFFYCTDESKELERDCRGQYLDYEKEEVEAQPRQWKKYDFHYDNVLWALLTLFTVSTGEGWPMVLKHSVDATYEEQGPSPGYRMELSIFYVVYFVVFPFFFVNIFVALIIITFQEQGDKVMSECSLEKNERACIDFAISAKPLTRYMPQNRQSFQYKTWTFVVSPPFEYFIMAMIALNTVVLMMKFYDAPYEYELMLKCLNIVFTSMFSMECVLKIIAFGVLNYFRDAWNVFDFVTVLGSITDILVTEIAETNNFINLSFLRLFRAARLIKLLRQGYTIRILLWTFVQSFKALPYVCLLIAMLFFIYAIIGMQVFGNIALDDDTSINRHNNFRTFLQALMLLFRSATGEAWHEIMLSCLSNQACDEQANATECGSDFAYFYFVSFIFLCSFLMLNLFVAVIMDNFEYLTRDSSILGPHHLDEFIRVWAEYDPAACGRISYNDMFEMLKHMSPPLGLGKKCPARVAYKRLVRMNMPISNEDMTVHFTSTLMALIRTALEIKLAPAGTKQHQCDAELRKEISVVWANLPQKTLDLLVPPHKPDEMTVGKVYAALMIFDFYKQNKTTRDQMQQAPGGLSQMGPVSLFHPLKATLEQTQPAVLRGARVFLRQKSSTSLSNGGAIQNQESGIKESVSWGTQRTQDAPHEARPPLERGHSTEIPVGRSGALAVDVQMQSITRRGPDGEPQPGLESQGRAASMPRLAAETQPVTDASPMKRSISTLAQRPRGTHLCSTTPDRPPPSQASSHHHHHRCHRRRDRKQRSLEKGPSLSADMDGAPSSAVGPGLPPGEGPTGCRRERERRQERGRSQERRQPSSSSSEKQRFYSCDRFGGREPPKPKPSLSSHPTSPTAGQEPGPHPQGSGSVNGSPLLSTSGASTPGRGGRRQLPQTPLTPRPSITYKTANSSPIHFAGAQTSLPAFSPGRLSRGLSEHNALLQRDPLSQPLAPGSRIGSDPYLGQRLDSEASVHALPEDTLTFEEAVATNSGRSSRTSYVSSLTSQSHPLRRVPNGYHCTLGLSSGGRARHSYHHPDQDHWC
T1 sequence (Q02410 whole entry): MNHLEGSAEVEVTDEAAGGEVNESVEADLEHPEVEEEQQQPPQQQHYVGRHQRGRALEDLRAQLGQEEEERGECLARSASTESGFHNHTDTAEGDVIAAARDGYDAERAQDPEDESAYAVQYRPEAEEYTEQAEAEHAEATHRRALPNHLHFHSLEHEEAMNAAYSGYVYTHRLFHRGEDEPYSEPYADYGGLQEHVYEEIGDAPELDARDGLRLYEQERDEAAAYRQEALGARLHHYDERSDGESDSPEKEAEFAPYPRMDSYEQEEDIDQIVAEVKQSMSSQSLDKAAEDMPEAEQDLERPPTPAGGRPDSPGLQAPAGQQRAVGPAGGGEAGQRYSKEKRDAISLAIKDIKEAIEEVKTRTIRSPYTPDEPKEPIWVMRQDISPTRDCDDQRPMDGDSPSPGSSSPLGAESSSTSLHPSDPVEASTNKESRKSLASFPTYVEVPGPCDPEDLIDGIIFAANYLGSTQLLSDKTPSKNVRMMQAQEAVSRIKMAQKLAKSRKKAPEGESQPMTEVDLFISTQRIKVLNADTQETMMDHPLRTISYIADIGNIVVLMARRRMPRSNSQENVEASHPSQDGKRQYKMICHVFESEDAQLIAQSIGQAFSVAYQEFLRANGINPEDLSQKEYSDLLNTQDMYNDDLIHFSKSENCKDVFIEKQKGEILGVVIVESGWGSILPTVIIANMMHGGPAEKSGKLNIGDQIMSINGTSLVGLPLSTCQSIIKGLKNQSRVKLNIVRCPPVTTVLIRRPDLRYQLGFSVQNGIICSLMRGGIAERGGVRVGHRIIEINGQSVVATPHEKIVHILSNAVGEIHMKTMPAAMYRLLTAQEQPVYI

On to `O=[N+]([O-])c1cccc(CN2CCN(c3ncccn3)CC2)c1`, for which the EC50 in test [1] was 22.3 µM (inactive); on Mu-type opioid receptor it was 92.5 µM (inactive).

As to `C=C(C)C(=O)Nc1cccc(C2=NOC3(C2)C[C@@H](C(N)=O)N(C(=O)C2(C)CC2)C3)c1` (some centres undefined), the IC50 in test [2] was 1.45 µM (active); in test [3] it was > 50 µM (inactive); in test [4], 1.84 µM (active); in test [5], 0.408 µM (active). The AC50 at ORF 73 was 17.9 µM (active).

`COc1cccc(CNc2nc(NCC3CC3)nc3ccsc23)c1OC`: the AC50 in test [6] is 23.6 µM (active); in test [8], 34 µM (active); in test [9], 4.48 µM (active). Further, the IC50 is 33.3 µM (inactive) in test [7], 12.3 µM (active) in test [10] and 11.5 µM (active) in test [11].

As to `CCCCNC(=O)CCn1c(=O)c2ccccc2n(Cc2ccccc2C)c1=O`, the IC50 in test [12] was 2.98 µM (active); in test [14], 19.8 µM (active). The EC50 in [13] was > 53 µM (inactive).

With `O=C(NC(c1ccccc1)c1ccsc1)C1CCN(CCOc2ccc(Cl)cc2Cl)CC1` (centres undefined), the EC50 at Melanocortin receptor 4 is > 89.2 µM (inactive).

`O=C(c1ccoc1)N1CCCN(c2cc(-c3ccccc3)nc3cc(-c4cccc(Cl)c4)nn23)CC1`: the EC50 in test [15] is 1.98 µM (active); in [16], 6 µM (active).

The AC50 is the concentration at which the activity in the assay is half-maximal.
